Measured values published in patent US9421237B2, “Tripeptide boronic acid or boronic ester, preparative method and use thereof” (PEKING UNIVERSITY, priority 2009, dated 2016).

Legend:
[1] = tested on: HL-60, BXPC-3, U266 and BGC-823 cells; assay: In vitro anti-tumor activity (IC50), summary over the four tumor cell lines; format: cell-based
Text: According to the results of aforementioned preliminary anti-tumor activities screening tests, those compounds which have better anti-tumor activities were selected to measure their IC50 values on four types of tumor cell lines: HL-60 (promyelocytic leukemia cell strain), BXPC-3 (human pancreatic cancer cell strain), U266 (multiple myeloma cell strain) and BGC-823 (human gastric carcinoma cell strain). HL-60, BXPC-3 and U266 were obtained from the American Type Culture Collection (Manassas, Va.), and BGC-823 (human gastric carcinoma cell strain) was obtained from China Pharmaceutical University.
Test methods: HL-60 cells were cultured in IMDM medium containing 20% fetal bovine serum at 37° C. in 5% CO2; BGC-823 cells and BXPC-3 cells were cultured in RPMI1640 medium containing 10% fetal bovine serum at 37° C. in 5% CO2; U266 cells were cultured in RPMI1640 medium containing 15% fetal bovine serum at 37° C. in 5% CO2.
The cell growth was measured by the standard MTT method. […] The precipitates were dissolved in 100 μL of DMSO, and absorbance was read with an Infinite M200 (Tecan, Austria) microplate reader at 540 nm.
The result was expressed as IC50 value, which is the average value of three independent determinations.

[2] = target: T1, 20S proteasome extracted from rat liver, peptidyl-glutamyl-peptide-hydrolyzing (PGPH) enzyme activity (Rattus norvegicus, UniProt P28073+Q9JHW0); assay: Proteasome inhibition, PGPH activity, fluorescent peptide Z-leu-leu-Glu-βNA; format: biochemical; details: rat liver 20S proteasome, 37° C., 1 h
T1 construct: 20S proteasome extracted from rat liver; from tissue; host or cells: rat liver
How it was run: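 Rat liver 20S proteasome (1 μg) incubated 1 h at 37 °C with compounds, 50 μM fluorogenic peptide and 20 mM Tris-HCl. AMC release read at 380/440 nm and βNA release at 335/410 nm. Inhibition rate calculated against a 0.1% DMSO solvent control.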

[3] = target: T2, 20S proteasome extracted from rat liver, chymotryptic-like (CT-L) activity (Rattus norvegicus, UniProt P18421+P28075); assay: Proteasome inhibition, chymotryptic-like (CT-L) activity, fluorescent peptide Suc-leu-leu-Val-Tyr-AMC; format: biochemical; details: rat liver 20S proteasome, 37° C., 1 h
T2 construct: 20S proteasome extracted from rat liver; from tissue; host or cells: rat liver
How it was run: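 Rat liver 20S proteasome (1 μg) incubated 1 h at 37° C with compounds and 50 μM Suc-Leu-Leu-Val-Tyr-AMC in 20 mM Tris-HCl.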

melting point [°C]	Structure (SMILES)	Inhibition of growth of three types of cells, compared with PS341 [1]	IC50 [2] [nM]	IC50 [3] [nM]
157 to 159	CC(C)C[C@H](NC(=O)[C@H](Cc1ccc2ccccc2c1)NC(=O)[C@H](CC(C)C)NC(=O)c1cnccn1)B(O)O [Compound 6f, N-pyrazineformyl-L-leucyl-L-naphthylalanyl-L-leucine Boronic Acid]	better than those of PS341	3.63 ± 1.67	0.079 ± 0.011
	CC(C)C[C@H](NC(=O)[C@H](Cc1ccc2ccccc2c1)NC(=O)[C@H](Cc1ccccc1)NC(=O)c1cnccn1)B(O)O [Compound 6g, N-pyrazineformyl-L-phenylalanyl-L-naphthylalanyl-L-leucine Boronic Acid]		3.8 ± 0.983	0.111 ± 0.05
